Consider 1 compound from PMC11336141.

The experiment deals with perfused rat pancreas. Kind of experiment: Rat pancreas perfusion, insulin output. The settings on record: for effect on insulin secretion: 0.1 nM, 1 nM and 10 nM, […] glucose, n = 5 rats; for Insulin output: Mean. Further details: species or system rat (Wistar). The method, then: Non-fasted rats were anesthetized by a subcutaneous injection of a balanced mix of hypnorm and midazolam (0.3 mL/100 g body weight). Rats were placed on a heated operating table (37 °C) and the abdomen were opened. Blood vessels were tied off before removing the large and small intestines, the stomach, and the spleen. Then, the kidneys were ligated. […] The perfusion buffer was a modified Krebs-Ringer bicarbonate buffer with 5% (w/v) dextran T-70 (Pharmacosmos, Holbaek, Denmark), 0.1% (w/v) BSA (fraction V), 3.5 mM glucose and 3 mM vamin (Fresenius Kabi, Copenhagen, Denmark), pH adjusted to 7.4. […] Once perfusion of the pancreas was established, a catheter was inserted in the vena portae to collect the venous effluent and the rat was sacrificed by perforation of the diaphragm. After a 30-minute equilibration period, samples were collected every minute for the duration of the protocol. […] 10 mM L-Arginine was used as a positive control. Collected samples were immediately transferred on ice and stored at −20 °C until hormone analysis. Glucagon, insulin, and somatostatin concentrations in venous effluents were quantified by use of validated in-house radioimmunoassays (RIA) as previously described[36] (see below). Statistical analysis were performed where appropriate using one-way analysis of variance (ANOVA) with Dunnett’s post-test. Statistical significance was taken as p < 0.05.
Glucagon concentration in perfusion samples were measured by a validated in-house RIAs using the 4305 antibody, which reacts with the C-terminal epitope of glucagon[36] and no other cleavage products of pro-glucagon. Insulin concentrations were measured with the 2006 antibody, which measures all isoforms of rat insulin. […] Assay sensitivity was <1 pmol/L ( < 5 pmol/L for insulin detection), allowing reliable measurements of increments of at least 25 fmol/min.
Data analysis were performed in GraphPad Prism (v.9.4.1). Statistical analysis were performed using two-way repeated measure analysis of variance (ANOVA) with Šidák test for isolated islets glucagon secretion and one-way repeated measure ANOVA with Dunnett's test for rat pancreas perfusion experiments. Statistical significance was taken as p < 0.05.

Bridge positions count the residues as written; N and C are the ends. Square brackets hold non-standard residues; d marks the D form. Peptide text beside a SMILES is read from it.

`CC(C)C[C@H](N)C(=O)N[C@@H](Cc1ccccc1)C(=O)N[C@H]1CSSC[C@@H](C(=O)N[C@@H](Cc2c[nH]c3ccccc23)C(=O)O)NC(=O)[C@H](CO)NC(=O)[C@H](CCCCN)NC(=O)[C@@H](Cc2c[nH]c3ccccc23)NC(=O)[C@H](Cc2ccccc2)NC1=O` [pG1] (H-LFCF[dW]KSCW-OH; disulfide 3-8): the “effect on insulin secretion” value is “did not affect insulin and somatostatin output at low glucose (3.5 mM)”. Also, the “effect on insulin secretion” value (listed as Consomatin pG1) is recorded as “no effect on somatostatin or insulin secretion in 3.5 mM glucose”. For the same compound, where the note is “0.1nM, replicate 1”, the Insulin output came to 35.5. Moreover, the Insulin output (0.1nM, replicate 2) is 10. For the setting “0.1nM, replicate 3”, this compound came in with an Insulin output of 25.5. The compound also gave an Insulin output (0.1nM, replicate 4) of 51. The compound also showed an Insulin output (0.1nM, replicate 5) of 14. The Insulin output (1nM, replicate 1) is listed as 15.5556. Also, the Insulin output (1nM, replicate 2) is recorded as 29. Moreover, the Insulin output (1nM, replicate 3) is recorded as 40. In addition, the Insulin output (1nM, replicate 4) is 74.5. The compound further yielded an Insulin output (1nM, replicate 5) of 0. The Insulin output (10nM, replicate 1) is 25. For the same compound, the Insulin output (10nM, replicate 2) is 0. In addition, where the note is “10nM, replicate 3”, the Insulin output came to 15. The same compound had an Insulin output (10nM, replicate 4) of 35. Moreover, the Insulin output (10nM, replicate 5) was determined as 11.5.
